Legend:
[1] = 15 normal subjects, Aeroneb nebulizer with Idehaler; cited from earlier work
[2] = Gamma camera deposition in patients inhaling aerosol during tidal breathing from AeroTech II nebulizers; type: in vivo, human; details: group of patients, AeroTech II type nebulizers

| SMILES | oropharyngeal activity (average) [1] [%] | upper airway deposition as a percentage of total deposition [2] [%] |
| --- | --- | --- |
| NCC[C@H](O)C(=O)N[C@@H]1C[C@H](N)[C@@H](O[C@H]2O[C@H](CN)[C@@H](O)[C@H](O)[C@H]2O)[C@H](O)[C@H]1O[C@H]1O[C@H](CO)[C@@H](O)[C@H](N)[C@H]1O [amikacin] | 29.4±7.4 |  |
| N=C(N)c1ccc(OCCCCCOc2ccc(C(=N)N)cc2)cc1 [pentamidine] |  | ≤ 5 |
